The nature of series [1]: Plasma protein binding assay (PPB), equilibrium dialysis, 10% FCS in PBS. Format: in vitro ADME. The following applies: bovine, read-out: PPB 10% FCS (% fu). The procedure:
Binding of test compounds to plasma was determined using equilibrium dialysis (ED) and quantitative mass spectrometry interfaced with liquid chromatography (LC-MS). In brief, ED was performed with dialysis devices consisting of two chambers separated by a semipermeable membrane with a molecular weight cut-off of 5-10 kg/mol. One chamber was filled with 10% FCS in PBS containing 1-10 μmol/L test compound and the other chamber was filled with phosphate-buffer saline (PBS) with or without dextran. The dialysis chamber was incubated for 3-5 hours at 37° C. After incubation, protein was precipitated from aliquots of each chamber and the concentration of test compound in the supernatant of the plasma-containing compartment (Cserum) and of the buffer-containing compartment (Cbuffer) was determined by LC-MS. The fraction of unbound test compound (not bound to plasma) (fu) was calculated according to the following equation: […]

The nature of series [2]: Metabolic (microsomal) stability assay, human liver microsomes (HLM). Format: in vitro ADME. The settings on record: predicted clearance as percent of liver blood flow, 1 μM. The procedure: The metabolic degradation of the test compound is assayed at 37° C. with pooled liver microsomes (mouse (MLM), rat (RLM) or human (HLM)). The final incubation volume of 48 μL pertime point contains TRIS buffer (pH 7.5; 0.1 M), magnesium chloride (6.5 mM), microsomal protein (0.5 mg/mL for mouse/rat, 1 mg/mL for human specimens) and the test compound at a final concentration of 1 μM. Following a short preincubation period at 37° C., the reactions are initiated by addition of 12 μL beta-nicotinamide adenine dinucleotide phosphate, reduced form (NADPH, 10 mM) and terminated by transferring an aliquot into solvent after different time points (0, 5, 15, 30, 60 min). Additionally, the NADPH-independent degradation is monitored in incubations without NADPH, terminated at the last time point by addition of acetonitrile. The quenched incubations are pelleted by centrifugation (4,000 rpm, 15 min). An aliquot of the supernatant is assayed by LC-MS/MS to quantify the concentration of parent compound in the individual samples.
In vitro intrinsic clearance (CLint, in vitro) is calculated from the time course of the disappearance of the test drug during the microsomal incubation. Each plot is fitted to the first-order elimination rate constant as C(t)═C0*exp(−ke*t), where C(t) and C0 are the concentration of unchanged test drug at incubation time t and that at preincubation and ke is the disappearance rate constant of the unchanged drug. Subsequently, CLint in vitro (μL min^−1·amount protein) values are converted to predicted CLint,in vivo (mL min^−1 kg^−1) from incubation parameters according to the equation CLint, in vivo=CLint, in vitro×(incubation volume (ml)/amount protein (mg))×(amount protein (mg)/g liver tissue)×(liver weight/body wt.).
For better across species comparison the predicted clearance is expressed as percent of the liver blood flow [% QH] (mL min^−1·kg^−1) in the individual species. In general, high stability (corresponding to low % QH) of the compounds across species is desired.

The test system of series [3] is KRAS G12C-dependent Ba/F3 cells. Kind of series: Ba/F3 proliferation assay, KRAS G12C. Format: cell-based. The settings on record: Mus musculus, BaF3, 72 h, AlamarBlue. Here is the method:
Plasmids containing KRASG12 mutants (i.e. […], G12C, G12V) are obtained from GeneScript. To generate KRASG12-dependent Ba/F3 models, Ba/F3 cells are transduced with retroviruses containing vectors that harbor KRASG12 isoforms. Platinum-E cells (Cell Biolabs) are used for retrovirus packaging. Retrovirus is added to Ba/F3 cells. To ensure infection, 4 μg/mL polybrene is added and cells are spinfected. […] Cells with an infection efficiency of 10% to 20% are further cultivated and puromycin selection with 1 μg/mL is initiated. As a control, parental Ba/F3 cells are used to show selection status. Selection is considered successful when parental Ba/F3 cells cultures died. To evaluate the transforming potential of KRASG12 mutations, the growth medium is no longer supplemented with IL-3. Ba/F3 cells harboring the empty vector are used as a control. Approximately ten days before conducting the experiments, puromycin is left out.
Compounds are added using an Access Labcyte Workstation with a Labcyte Echo 550 or 555 accoustic dispenser. All treatments are performed in technical duplicates. […] AlamarBlue™ (ThermoFisher), a viability stain, is added and fluorescence measured in the PerkinElmer Envision HTS Multilabel Reader. The raw data are imported into and analyzed with the Boehringer Ingelheim proprietary software MegaLab (curve fitting based on the program PRISM, GraphPad Inc.).
A general note: The colour change of resazurin is a common sign of viable cells or microbes.

The test system of another series is NCI-H358 cells. Kind of series: NCI-H358 CTG proliferation assay (120 h) (NSCLC, G12C). Format: cell-based, human. The settings on record: Homo sapiens. The procedure:
NCI-H358 CTG Proliferation Assay (120 h) (NSCLC, G12C)
NCI-H358 cells (ATCC No. CRL-5807) are dispensed into white bottom opaque 96 well plates (Perkin Elmer cat no. 5680) at a density of 2000 cells per well in 100 μL RPMI-1640 ATCC-Formulation (Gibco #A10491)+10% FCS (fetal calf serum) (assay 1) or into black 384-well plates, flat and clear bottom (Greiner, PNr. 781091) at a density of 200 cells per well in 60 μl RPMI-1640 ATCC-Formulation (Gibco #A10491)+10% FCS (fetal calf serum) (assay 2). […] Compounds (10 mM stock in DMSO) are added at logarithmic dose series using the HP Digital Dispenser D300 (Tecan) (assay 1) or the ECHO acoustic liquid handler system (Beckman Coulter) (assay 2), normalizing for added DMSO and including DMSO controls. For the TO time point measurement, untreated cells are analyzed at the time of compound addition. Plates are incubated for 120 h, and cell viability is measured using CellTiter-Glo luminescent cell viability reagent (Promega product code G7570). Viability (stated as percent of control) is defined as relative luminescence units RLU of each well divided by the RLU of cells in DMSO controls. IC50 values are determined from viability measurements by non-linear regression using a four parameter model.

Where [4] appears, read: assay 2, CTG, read-out: H358 (assay 2) IC50.

Where two headings read alike, the source gives them in different places.

By IC50 is commonly meant the concentration at which inhibition is half-maximal. Consider `C[C@H](Oc1cc(N2CCCC2=O)nc(-c2noc3c2CCC[C@@]32CCCc3sc(N)c(C#N)c32)n1)[C@@H]1CCCN1C` [II-73], for which the fraction unbound in series [1] came to 0.22. In addition, in series [2], the “HLM QH” value is 53%. This compound displayed an IC50 in series [3] of 10 nM.
In the case of `COC(=O)c1ccc(-c2cc(O[C@@H](C)[C@@H]3CCCN3C)nc(-c3noc4c3CCC[C@@]43CCCc4sc(N)c(C#N)c43)n2)o1` [II-114], in series [1], the fraction unbound is 0.07. Besides, in series [2], the “HLM QH” value is on record as 34%. Besides, the results for the 50% inhibitory concentration (IC50) (in the series on NCI-H358 cells (setting [4]); in series [3]) were 123 nM and 16 nM, respectively.
Turning to `C[C@H](Oc1cc(-c2ccn(C3COC3)n2)nc(-c2noc3c2CCC[C@@]32CCCc3sc(N)c(C#N)c32)n1)[C@@H]1C[C@H](F)CN1C` [II-83], the fraction unbound in series [1] stood at 0.18. Moreover, the “HLM QH” value in series [2] was 72%. In series [3], 15 nM corresponded to half-maximal inhibition (IC50).
`Cc1cn(-c2cc(O[C@@H](C)[C@@H]3CCCN3C)nc(-c3noc4c3CCC[C@@]43CCCc4sc(N)c(C#N)c43)n2)nn1` [II-106]: the fraction unbound in series [1] was 0.2. Further, the “HLM QH” value in series [2] was 44%. Moreover, the IC50 amounted to 2250 nM with NCI-H358 cells (setting [4]) and 31 nM in series [3].
For the compound `C[C@H](Oc1cc(N2CCOC3(COC3)C2)nc(-c2noc3c2CCC[C@@]32CCCc3sc(N)c(C#N)c32)n1)[C@@H]1CCCN1C` [II-77], in series [1], the fraction unbound came to 0.16. Besides, in series [2], the “HLM QH” value is 34%. For the same compound, the IC50 with NCI-H358 cells (assay 1, CTG, read-out: H358 (assay 1) IC50) amounted to 51 nM; with NCI-H358 cells (setting [4]), 9 nM; in series [3], 14 nM.
For the compound `C[C@H](Oc1cc(N2CC[C@@H](O)C2)nc(-c2noc3c2CCC[C@@]32CCCc3sc(N)c(C#N)c32)n1)[C@@H]1CCCN1C` [II-66], the fraction unbound in series [1] was determined as 0.41. For the same compound, the “HLM QH” value in series [2] is listed as under 24%. Further, the figures for the IC50 (in the series on NCI-H358 cells (setting [4]); in series [3]) were 586 nM and 54 nM, respectively.
For `COCc1cn(-c2cc(O[C@@H](C)[C@@H]3CCCN3C)nc(-c3noc4c3CCC[C@@]43CCCc4sc(N)c(C#N)c43)n2)nn1` [II-121] the same measures were 0.4, 39%, 268 nM and 13 nM.
For `C[C@H](Oc1cc(N2CCc3cccnc32)nc(-c2noc3c2CCC[C@@]32CCCc3sc(N)c(C#N)c32)n1)[C@@H]1CCCN1C` [II-90] the same measures were 0.01, under 24%, 3250 nM and 157 nM.
As for `C[C@H]1CN(C)CCCN1c1cc(N2CCN(C)CC2)nc(-c2onc3c2CCC[C@@]32CCCc3sc(N)c(C#N)c32)n1` [I-7], the fraction unbound in series [1] was 0.36. Besides, the “HLM QH” value in series [2] is listed as under 24%. The compound also came in with an IC50 in series [3] of 608 nM.
With `C[C@H](Oc1cc(-c2ccccn2)nc(-c2noc3c2CCC[C@@]32CCCc3sc(N)c(C#N)c32)n1)[C@@H]1CCCN1C` [II-85], in series [1], the fraction unbound came to 0.08. Moreover, in series [2], the “HLM QH” value is 47%. Further, the IC50 in the series on NCI-H358 cells (setting [4]) amounted to 23 nM; in series [3], 19 nM.
Regarding `CO[C@@H]1C[C@@H]([C@H](C)Oc2cc(-c3ccn(C4COC4)n3)nc(-c3noc4c3CCC[C@@]43CCCc4sc(N)c(C#N)c43)n2)N(C)C1` [II-107], in series [1], the fraction unbound came to 0.24. Besides, the “HLM QH” value in series [2] is 45%. For the same compound, the IC50 in series [3] stood at 5 nM.
Turning to `C[C@H](Oc1cc(-c2ccn(-c3ccsc3)n2)nc(-c2noc3c2CCC[C@@]32CCCc3sc(N)c(C#N)c32)n1)[C@@H]1CCCN1C` [II-84], the “HLM QH” value in series [2] is listed as under 24%. Further, the half-maximal inhibitory concentration (IC50) in the series on NCI-H358 cells (setting [4]) is over 25000 nM; in series [3] it was 36 nM.
In the case of `Cc1nccn1-c1cc(O[C@@H](C)[C@@H]2CCCN2C)nc(-c2noc3c2CCC[C@@]32CCCc3sc(N)c(C#N)c32)n1` [II-79], in series [1], the fraction unbound was 0.15. In addition, in series [2], the “HLM QH” value was 45%. The compound also registered an IC50 in series [3] of 24 nM.
Taken in the same sequence, the figures for `CO[C@@H]1C[C@@H]([C@H](C)Oc2cc(-c3cnn(C)n3)nc(-c3noc4c3CCC[C@@]43CCCc4sc(N)c(C#N)c43)n2)N(C)C1` [II-62] were 0.18, 58% and 34 nM.
For `C[C@H](Oc1cc(-n2ccncc2=O)nc(-c2noc3c2CCC[C@@]32CCCc3sc(N)c(C#N)c32)n1)[C@@H]1CCCN1C` [II-116] the same measures were 0.35, 75% and 6 nM.
For `C[C@H](Oc1cc(-n2ccc(C#N)n2)nc(-c2noc3c2CCC[C@@]32CCCc3sc(N)c(C#N)c32)n1)[C@@H]1CCCN1C` [II-102] the same measures were 0.04, 51% and 4 nM.
As for `C[C@H](Oc1cc(-c2cncs2)nc(-c2noc3c2CCC[C@@]32CCCc3sc(N)c(C#N)c32)n1)[C@@H]1CCCN1C` [II-80], the fraction unbound in series [1] amounted to 0.23. In addition, the “HLM QH” value in series [2] is 30%. Also, the IC50 in series [3] came to 21 nM.
Taken in the same sequence, the figures for `Cc1nc(-c2cc(O[C@@H](C)[C@@H]3CCCN3C)nc(-c3noc4c3CCC[C@@]43CCCc4sc(N)c(C#N)c43)n2)cs1` [II-103] were 0.07, under 24% and 7 nM.
Regarding `C[C@H](Oc1cc(-n2cncc3ccnc2-3)nc(-c2noc3c2CCC[C@@]32CCCc3sc(N)c(C#N)c32)n1)[C@@H]1CCCN1C` [II-105], the fraction unbound in series [1] came out at 0.07. Further, the IC50 in the series with NCI-H358 cells (setting [4]) turned out to be 46 nM; in series [3] it was 12 nM.
As to `C[C@H](Oc1cc(-c2cn(C3CCOCC3)nn2)nc(-c2noc3c2CCC[C@@]32CCCc3sc(N)c(C#N)c32)n1)[C@@H]1CCCN1C` [II-115], in series [1], the fraction unbound was found to be 0.43. Besides, the “HLM QH” value in series [2] is recorded as under 24%. Besides, in series [3], the half-maximal inhibitory concentration (IC50) stood at 29 nM.
For `C[C@H](Oc1cc(-c2cn(C3COC3)nn2)nc(-c2noc3c2CCC[C@@]32CCCc3sc(N)c(C#N)c32)n1)[C@@H]1CCCN1C` [II-100] the same measures were 0.28, 28% and 19 nM.
On to `C[C@H](Oc1cc(-c2ccn(-c3ccccc3)n2)nc(-c2noc3c2CCC[C@@]32CCCc3sc(N)c(C#N)c32)n1)[C@@H]1CCCN1C` [II-89], for which, in series [2], the “HLM QH” value was under 24%. For the same compound, the concentration for half-maximal inhibition (IC50) with NCI-H358 cells (setting [4]) was 220 nM; in series [3], 57 nM.

The values above are taken from patent US20240174690A1, “ANNULATED 2-AMINO-3-CYANO THIOPHENES AND DERIVATIVES FOR THE TREATMENT OF CANCER” (BOEHRINGER INGELHEIM INTERNATIONAL GMBH, priority 2021, published 2024).
